In one data set the target is AR (Homo sapiens, UniProt P10275). The conditions noted are these: cited from earlier work.
A short description of data set [1]: Plasma kinetics after single subcutaneous dose of rilpivirine nanosuspension with or without rHuPH20 (Example 1). It counts as in vivo, minipigs. The conditions noted are these: minipig, single SC dose 900 mg/3 mL, N=3. As for the experimental part:
Six minipigs with body weights ranging from 20 to 25 kg at the start of the study were used. The minipigs were fasted overnight before dosing. Three minipigs were dosed subcutaneously in the loin with 0.19 mL of the hyaluronidase solution (10,000 U/mL) followed by 900 mg/3 mL of the drug nanosuspension at the same injection site (treatment group A). Three minipigs were dosed subcutaneously in the loin with the 900 mg/3 mL of the control drug suspension (treatment group B—control). The injection volume was 3 mL drug suspension in both treatment groups. Method—Sequential Administration • 1. Flip-off rHuPH20 solution vial flip cap and wipe with isopropyl alcohol wipe. Allow to dry. Attach an 18G transfer needle to a 1 mL syringe. • 2. Draw 0.35 mL into the syringe. • 3. Prime the syringe and set liquid level to 0.25 mL in the syringe. • 4. Remove transfer needle and attach syringe cap to 1 mL syringe. • 5. Mix rilpivirine by horizontally shaking the container 30 times over approximately 25 cm within approximately 10 s (a back and forth arm movement=2 times). Ensure well mixed/fully re-supended. • 6. Flip-off rilpivirine vial flip cap and wipe with isopropyl alcohol wipe. Allow to dry. • 7. Attach 18G transfer needle to 5 mL syringe. • 8. Invert vial and draw >3.2 mL into 5 mL syringe mL (or as much as can be removed from vial). Injecting 1-2 mL of air will facilitate draw. • 9. Detach needle and attach a syringe cap to 5 mL syringe • 10. Invert syringe. Wait 5 minutes for bubbles to settle. • 11. Attach a winged infusion set to the rHuPH20 1 mL syringe. Invert syringe and prime off air so that liquid forms at the tip of the needle. (0.19 mL of rHuPH20 should be in the line) • 12. […] Plasma samples were analysed individually by means of a validated LC-MS/MS method. Pharmacokinetic Data Analysis • The pharmacokinetic profile of the blood plasma samples was evaluated using non-compartmental pharmacokinetic analysis (using individual Cp vs time profiles). Mean plasma concentrations and PK parameters (Cmax, Tmax, t1/2 and AUC values) were measured and the results are provided in Table 1.

Data set [2] concerns non-castrate hormone-sensitive and bicalutamide-resistant human prostate cancer xenograft models. The conditions noted are these: cited from earlier work.

SMILES strings stand for the structures.

AR, sequence (P10275 whole entry): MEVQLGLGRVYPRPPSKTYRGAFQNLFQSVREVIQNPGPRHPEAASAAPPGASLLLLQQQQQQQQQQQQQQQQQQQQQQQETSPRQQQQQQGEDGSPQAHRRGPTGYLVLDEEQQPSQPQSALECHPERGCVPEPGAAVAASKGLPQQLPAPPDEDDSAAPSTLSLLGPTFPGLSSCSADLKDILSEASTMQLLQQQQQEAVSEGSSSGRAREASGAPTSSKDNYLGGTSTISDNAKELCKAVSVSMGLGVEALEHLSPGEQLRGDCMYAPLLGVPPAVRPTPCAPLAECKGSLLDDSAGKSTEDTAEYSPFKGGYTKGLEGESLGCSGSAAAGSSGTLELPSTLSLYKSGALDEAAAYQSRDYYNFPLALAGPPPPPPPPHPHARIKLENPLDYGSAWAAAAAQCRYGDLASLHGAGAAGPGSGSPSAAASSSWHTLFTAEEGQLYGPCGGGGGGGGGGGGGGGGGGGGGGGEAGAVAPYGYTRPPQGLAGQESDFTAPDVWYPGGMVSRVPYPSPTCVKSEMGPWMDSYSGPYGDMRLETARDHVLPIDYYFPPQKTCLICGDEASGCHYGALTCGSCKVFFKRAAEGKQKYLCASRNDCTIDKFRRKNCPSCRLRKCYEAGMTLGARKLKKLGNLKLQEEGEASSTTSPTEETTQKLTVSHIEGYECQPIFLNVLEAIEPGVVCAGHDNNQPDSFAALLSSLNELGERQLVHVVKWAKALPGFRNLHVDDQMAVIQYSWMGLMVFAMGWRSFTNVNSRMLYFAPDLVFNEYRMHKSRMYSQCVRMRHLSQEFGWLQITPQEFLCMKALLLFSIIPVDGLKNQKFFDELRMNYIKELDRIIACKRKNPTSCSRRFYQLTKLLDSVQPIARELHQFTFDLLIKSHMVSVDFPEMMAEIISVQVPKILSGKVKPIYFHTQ

On to `CC(O)c1cc(C(=O)N[C@@H](C)Cn2ccc(-c3ccc(C#N)c(Cl)c3)n2)n[nH]1` (stereo partly drawn) [Darolutamide, N-{(2S)-1-[3-(3-chloro-4-cyanophenyl)-1H-pyrazol-1-yl]propan-2-yl}-5-(1-hydroxyethyl)-1H-pyrazole-3-carboxamide], for which the AR binding affinity result at AR was “high affinity”. By AUC(0-inf) is commonly meant total exposure, with the tail of the curve extrapolated. High values mean more exposure, low ones less exposure. In data set [1] (median), `Cc1cc(/C=C/C#N)cc(C)c1Nc1ccnc(Nc2ccc(C#N)cc2)n1` [Rilpivirine, 4-[[4-[[4-[(1E)-2-cyanoethenyl]-2,6-dimethylphenyl]amino]-2-pyrimidinyl]amino]benzonitrile] had a Tlast of 2160 h. Also, the λz in data set [1] turned out to be 0.0009 ± 0.00009 h⁻¹. The total exposure AUC(0-inf) in data set [1] (plasma) came to 27000 ± 3200 ng·h/mL. As to `CNC(=O)c1ccc(N2C(=S)N(c3cnc(C#N)c(C(F)(F)F)c3)C(=O)C23CCC3)cc1F` [Apalutamide, 4-[7-(6-cyano-5-trifluoromethylpyridin-3-yl)-8-oxo-6-thioxo-5,7-diazaspiro[3.4]oct-5-yl]-2-fluoro-N-methylbenzamide], the tumor response entry in data set [2] was “partial or complete tumor regression”.

The values are drawn from US20230405094A1, “TREATMENT OR PREVENTION OF A DISEASE OR DISORDER” (Janssen Sciences Ireland Unlimited Company, priority 2020, published 2023).
